Test results reported in US20230085307A1, “PYRIDAZINONE COMPOUND AND HERBICIDE” (NISSAN CHEMICAL CORPORATION, priority 2019, published 2023).

Legend:
blackgrass = test: Test Example 5: herbicidal effect by foliage application, plastic box (Table 20, symbol J); format: in vivo, blackgrass (Alopecurus myosuroides); settings: for herbicidal effect on blackgrass (J) / effect on blackgrass (J): foliage application, 320 g/ha; for herbicidal effect on blackgrass (J): three weeks after application; for effect on blackgrass (J): 3 weeks after application
Summary of the method: (§1)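 Sow seeds spot-wise in sterilized diluvial soil; cover with ~1.5 cm soil. Grow 14 days in greenhouse, 25° C. to 30° C. Spray foliage with emulsion diluted to predetermined amount. Rate effect after 3 weeks.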

persian speedwell = test: Test Example 5: herbicidal effect by foliage application, plastic box (Table 20, symbol R); format: in vivo, Persian speedwell (Veronica persica); settings: for herbicidal effect on persian speedwell (R) / effect on persian speedwell (R): foliage application, 320 g/ha; for herbicidal effect on persian speedwell (R): three weeks after application; for effect on persian speedwell (R): 3 weeks after application
Summary of the method: as §1

green foxtail = test: Test Example 5: herbicidal effect by foliage application, plastic box (Table 20, symbol G); format: in vivo, green foxtail (Setaria viridis); settings: for herbicidal effect on green foxtail (G) / effect on green foxtail (G): foliage application, 320 g/ha; for herbicidal effect on green foxtail (G): three weeks after application; for effect on green foxtail (G): 3 weeks after application
Summary of the method: as §1

Chinese sprangletop = test: Test Example 3: herbicidal effect by foliage application, Wagner pot (Table 18, symbol D); format: in vivo, chinese sprangletop (Leptochloa chinensis); settings: 320 g/ha
Summary of the method: (§2)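 Plants were sown in alluvial soil held under 0.1–0.5 cm standing water and grown 14 days in a greenhouse at 25–30 °C. An emulsifiable formulation, water-diluted to the set dose, was then sprayed onto the foliage, and effects were scored three weeks later using previously defined criteria.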

barnyard grass [1] = test: Test Example 5: herbicidal effect by foliage application, plastic box (Table 20, symbol H); format: in vivo, barnyard grass (Echinochloa crus-galli); settings: for herbicidal effect on barnyard grass (H) / effect on barnyard grass (H): foliage application, 320 g/ha; for herbicidal effect on barnyard grass (H): three weeks after application; for effect on barnyard grass (H): 3 weeks after application
Summary of the method: as §1

southern crabgrass = test: Test Example 5: herbicidal effect by foliage application, plastic box (Table 20, symbol F); format: in vivo, southern crabgrass (Digitaria ciliaris); settings: for herbicidal effect on southern crabgrass (F) / effect on southern crabgrass (F): foliage application, 320 g/ha; for herbicidal effect on southern crabgrass (F): three weeks after application; for effect on southern crabgrass (F): 3 weeks after application
Summary of the method: as §1

barnyard grass [2] = test: Test Example 3: herbicidal effect by foliage application, Wagner pot (Table 18, symbol H); format: in vivo, barnyard grass (Echinochloa crus-galli); settings: 320 g/ha
Summary of the method: as §2

Italian ryegrass = test: Test Example 5: herbicidal effect by foliage application, plastic box (Table 20, symbol K); format: in vivo, Italian ryegrass (Lolium multiflorum); settings: for herbicidal effect on Italian ryegrass (K) / effect on Italian ryegrass (K): foliage application, 320 g/ha; for herbicidal effect on Italian ryegrass (K): three weeks after application; for effect on Italian ryegrass (K): 3 weeks after application
Summary of the method: as §1

velvetleaf = test: Test Example 5: herbicidal effect by foliage application, plastic box (Table 20, symbol M); format: in vivo, velvetleaf (Abutilon theophrasti); settings: for herbicidal effect on velvetleaf (M) / effect on velvetleaf (M): foliage application, 320 g/ha; for herbicidal effect on velvetleaf (M): three weeks after application; for effect on velvetleaf (M): 3 weeks after application
Summary of the method: as §1

rice flat sedge = test: Test Example 3: herbicidal effect by foliage application, Wagner pot (Table 18, symbol E); format: in vivo, rice flat sedge (Cyperus iria); settings: 320 g/ha
Summary of the method: as §2

windgrass = test: Test Example 5: herbicidal effect by foliage application, plastic box (Table 20, symbol L); format: in vivo, windgrass (Apera spica-venti); settings: for herbicidal effect on windgrass (L) / effect on windgrass (L): foliage application, 320 g/ha; for herbicidal effect on windgrass (L): three weeks after application; for effect on windgrass (L): 3 weeks after application
Summary of the method: as §1

wild oat = test: Test Example 5: herbicidal effect by foliage application, plastic box (Table 20, symbol I); format: in vivo, wild oat (Avena fatua); settings: for herbicidal effect on wild oat (I) / effect on wild oat (I): foliage application, 320 g/ha; for herbicidal effect on wild oat (I): three weeks after application; for effect on wild oat (I): 3 weeks after application
Summary of the method: as §1

lambsquarters = test: Test Example 5: herbicidal effect by foliage application, plastic box (Table 20, symbol O); format: in vivo, lambsquarters (Chenopodium album); settings: for herbicidal effect on lambsquarters (O) / effect on lambsquarters (O): foliage application, 320 g/ha; for herbicidal effect on lambsquarters (O): three weeks after application; for effect on lambsquarters (O): 3 weeks after application
Summary of the method: as §1

redroot pigweed = test: Test Example 5: herbicidal effect by foliage application, plastic box (Table 20, symbol N); format: in vivo, redroot pigweed (Amaranthus retroflexus); settings: amount of applied herbicide 320 g/ha; foliage application after 14-day growth; evaluated three weeks after application
Source text: [Test Example 5] Herbicidal Effect Test by Foliage Application
Sterilized diluvial soil was placed in a plastic box having a length of 21 cm, a width of 13 cm, and a depth of 7 cm. The seeds of each of southern crabgrass, green foxtail, barnyard grass, wild oat, blackgrass, Italian ryegrass, windgrass, velvetleaf, redroot pigweed, lambsquarters, chickweed, false cleavers, persian speedwell, corn, soybean, rice, wheat, beet, and rapeseed were sowed in a spot-like manner and covered with the soil having a thickness of about 1.5 cm. Thereafter, the plants were grown in a greenhouse at 25° C. to 30° C. After 14-day growth of the plants, the emulsion agent of the compound of the present invention prepared according to Formulation Example 2 was diluted with water so as to achieve a predetermined herbicide amount, and the diluted emulsion agent was uniformly applied to a foliage part with a small-sized spray. Three weeks after the herbicide application, the effect of the herbicide on each plant was evaluated according to the criteria of Test Example 1.

[3] = amount of applied herbicide 320 g/ha, foliage application after 14-day growth, evaluated three weeks after application

SMILES | herbicidal effect on blackgrass (J) (blackgrass) | herbicidal effect on persian speedwell (R) (persian speedwell) | herbicidal effect on green foxtail (G) (green foxtail) | herbicidal effect on Chinese sprangletop (D) (Chinese sprangletop) | herbicidal effect on barnyard grass (H) (barnyard grass [1]) | herbicidal effect on southern crabgrass (F) (southern crabgrass) | herbicidal effect on barnyard grass (H) (barnyard grass [2]) | herbicidal effect on Italian ryegrass (K) (Italian ryegrass) | herbicidal effect on velvetleaf (M) (velvetleaf) | herbicidal effect on rice flat sedge (E) (rice flat sedge) | herbicidal effect on windgrass (L) (windgrass) | herbicidal effect on wild oat (I) (wild oat) | herbicidal effect on lambsquarters (O) (lambsquarters) | effect on blackgrass (J) (blackgrass) | effect on persian speedwell (R) (persian speedwell) | effect on green foxtail (G) (green foxtail) | herbicidal effect on D (Chinese sprangletop), rating 0-5 (Chinese sprangletop) | effect on barnyard grass (H) (barnyard grass [1]) | effect on southern crabgrass (F) (southern crabgrass) | herbicidal effect on H (barnyard grass), rating 0-5 (barnyard grass [2]) | further results
COc1ccccc1-c1sc2c(F)cc(F)cc2c1-c1c(O)c(C)nn(C)c1=O [6-001] | 0 (Herbicidal rate of 5% or less (almost no effect)) | 0 (Herbicidal rate of 5% or less (almost no effect)) | 2 (Herbicidal rate of 20% or more and less than 40%) | 2 (Herbicidal rate of 20% or more and less than 40%) | 3 (Herbicidal rate of 40% or more and less than 70%) | 0 (Herbicidal rate of 5% or less (almost no effect)) | 3 (Herbicidal rate of 40% or more and less than 70%) | 0 (Herbicidal rate of 5% or less (almost no effect)) | 4 (Herbicidal rate of 70% or more and less than 90%) | 4 (Herbicidal rate of 70% or more and less than 90%) | 0 (Herbicidal rate of 5% or less (almost no effect)) | 0 (Herbicidal rate of 5% or less (almost no effect)) | 3 (Herbicidal rate of 40% or more and less than 70%) | – | – | – | – | – | – | – | –
Cc1cc2sc(-c3ccc(F)cc3)c(-c3c(O)c(C)nn(C)c3=O)c2cc1C [5-088] | 0 (Herbicidal rate of 5% or less (almost no effect)) | 4 (Herbicidal rate of 70% or more and less than 90%) | 0 (Herbicidal rate of 5% or less (almost no effect)) | 2 (Herbicidal rate of 20% or more and less than 40%) | 0 (Herbicidal rate of 5% or less (almost no effect)) | 0 (Herbicidal rate of 5% or less (almost no effect)) | 3 (Herbicidal rate of 40% or more and less than 70%) | 1 (Herbicidal rate of 5% or more and less than 20%) | 2 (Herbicidal rate of 20% or more and less than 40%) | 2 (Herbicidal rate of 20% or more and less than 40%) | 0 (Herbicidal rate of 5% or less (almost no effect)) | 0 (Herbicidal rate of 5% or less (almost no effect)) | 0 (Herbicidal rate of 5% or less (almost no effect)) | – | – | – | – | – | – | – | –
C#CCOc1c(C)nn(C)c(=O)c1-c1c(-c2ccc(F)cc2)sc2ccc(F)cc12 [2-006] | – | – | – | – | – | – | – | – | – | – | – | – | – | 0 (Herbicidal rate of 5% or less (almost no effect)) | 2 (Herbicidal rate of 20% or more and less than 40%) | 0 (Herbicidal rate of 5% or less (almost no effect)) | 0 (Herbicidal rate of 5% or less (almost no effect)) | 0 (Herbicidal rate of 5% or less (almost no effect)) | 0 (Herbicidal rate of 5% or less (almost no effect)) | 2 (Herbicidal rate of 20% or more and less than 40%) | effect on Italian ryegrass (K) (Italian ryegrass): 0 (Herbicidal rate of 5% or less (almost no effect)); effect on velvetleaf (M) (velvetleaf): 0 (Herbicidal rate of 5% or less (almost no effect)); herbicidal effect on E (rice flat sedge), rating 0-5 (rice flat sedge): 0 (Herbicidal rate of 5% or less (almost no effect)); effect on windgrass (L) (windgrass): 0 (Herbicidal rate of 5% or less (almost no effect)); effect on wild oat (I) (wild oat): 0 (Herbicidal rate of 5% or less (almost no effect)); effect on lambsquarters (O) (lambsquarters): 0 (Herbicidal rate of 5% or less (almost no effect))
COc1cc2sc(-c3ccc(F)cc3)c(-c3c(O)c(C)nn(C)c3=O)c2cc1Cl [5-067] | 1 (Herbicidal rate of 5% or more and less than 20%) | 4 (Herbicidal rate of 70% or more and less than 90%) | 0 (Herbicidal rate of 5% or less (almost no effect)) | 5 (Herbicidal rate of 90% or more (almost completely withered)) | 0 (Herbicidal rate of 5% or less (almost no effect)) | 0 (Herbicidal rate of 5% or less (almost no effect)) | 3 (Herbicidal rate of 40% or more and less than 70%) | 0 (Herbicidal rate of 5% or less (almost no effect)) | 0 (Herbicidal rate of 5% or less (almost no effect)) | 4 (Herbicidal rate of 70% or more and less than 90%) | 1 (Herbicidal rate of 5% or more and less than 20%) | 0 (Herbicidal rate of 5% or less (almost no effect)) | 3 (Herbicidal rate of 40% or more and less than 70%) | – | – | – | – | – | – | – | –
COCc1ccccc1-c1sc2c(Cl)cccc2c1-c1c(O)c(C)nn(C)c1=O [4-081] | – | – | – | 0 (Herbicidal rate of 5% or less (almost no effect)) | – | – | 3 (Herbicidal rate of 40% or more and less than 70%) | – | – | 0 (Herbicidal rate of 5% or less (almost no effect)) | – | – | – | – | – | – | – | – | – | – | Herbicidal effect by foliage application, J: blackgrass (blackgrass; [3]): 0 (Herbicidal rate of 5% or less (almost no effect)); Herbicidal effect by foliage application, R: persian speedwell (persian speedwell; [3]): 1 (Herbicidal rate of 5% or more and less than 20%); Herbicidal effect by foliage application, G: green foxtail (green foxtail; [3]): 3 (Herbicidal rate of 40% or more and less than 70%); Herbicidal effect by foliage application, H: barnyard grass (barnyard grass [1]; [3]): 3 (Herbicidal rate of 40% or more and less than 70%); Herbicidal effect by foliage application, F: southern crabgrass (southern crabgrass; [3]): 0 (Herbicidal rate of 5% or less (almost no effect)); Herbicidal effect by foliage application, N: redroot pigweed (redroot pigweed): 1 (Herbicidal rate of 5% or more and less than 20%); Herbicidal effect by foliage application, K: Italian ryegrass (Italian ryegrass; [3]): 0 (Herbicidal rate of 5% or less (almost no effect)); Herbicidal effect by foliage application, M: velvetleaf (velvetleaf; [3]): 3 (Herbicidal rate of 40% or more and less than 70%); Herbicidal effect by foliage application, L: windgrass (windgrass; [3]): 0 (Herbicidal rate of 5% or less (almost no effect)); Herbicidal effect by foliage application, I: wild oat (wild oat; [3]): 0 (Herbicidal rate of 5% or less (almost no effect)); Herbicidal effect by foliage application, O: lambsquarters (lambsquarters; [3]): 1 (Herbicidal rate of 5% or more and less than 20%)
COc1nn(C)c(=O)c(-c2c(-c3cc4ccccc4o3)sc3ccccc23)c1O [1-194] | – | – | – | – | – | – | – | – | – | – | – | – | – | 0 (Herbicidal rate of 5% or less (almost no effect)) | 0 (Herbicidal rate of 5% or less (almost no effect)) | 0 (Herbicidal rate of 5% or less (almost no effect)) | 0 (Herbicidal rate of 5% or less (almost no effect)) | 0 (Herbicidal rate of 5% or less (almost no effect)) | 0 (Herbicidal rate of 5% or less (almost no effect)) | 0 (Herbicidal rate of 5% or less (almost no effect)) | effect on Italian ryegrass (K) (Italian ryegrass): 3 (Herbicidal rate of 40% or more and less than 70%); effect on velvetleaf (M) (velvetleaf): 0 (Herbicidal rate of 5% or less (almost no effect)); herbicidal effect on E (rice flat sedge), rating 0-5 (rice flat sedge): 2 (Herbicidal rate of 20% or more and less than 40%); effect on windgrass (L) (windgrass): 0 (Herbicidal rate of 5% or less (almost no effect)); effect on wild oat (I) (wild oat): 1 (Herbicidal rate of 5% or more and less than 20%); effect on lambsquarters (O) (lambsquarters): 0 (Herbicidal rate of 5% or less (almost no effect))
